Key:
Assay type in all cases: in vivo, swine
[1] = system: ovariectomized estrogen primed gilt; assay: Dose response study of LH release in ovariectomized estrogen primed gilt model (RIA); settings: single injection of 50 mcg in SAIB
Protocol: A dose response study was performed using deslorelin in SAIB in an ovariectomized estrogen primed gilt model (Barb, et al. (1999) Proceed. Int'l. Symp. Control. Rel. Bioact. Mater., 26).

[2] = system: mature postpartum sows; assay: Deslorelin injected intravulvar at estrus detection with AI breeding in mature postpartum sows (Example 2)
Protocol: Sows were assigned randomly in blocks of two to either control or to be injected intravulvar with 50 mcg of deslorelin in SAIB at the time of estrus detection for sows first detected in estrus in the a.m. and 12 hours later for those first detected in estrus in the p.m. Treated animals were bred AI upon detected estrus and again 24 hours later if still in estrus. Controls received a saline injection on first detected estrus behavior estrus detection and were bred according to the farm's normal procedures.

[3] = system: postpartum sows; assay: Timed deslorelin injection 96 hours post-weaning and single timed insemination without estrus detection (Example 3)
Protocol: (§1) Approximately 170 postpartum sows were randomly divided into two equal groups comprised of controls and treated. Following weaning, the controls were detected for estrus and bred following the normal standard operating procedures for the farms on which they resided. The treated sows received a 50 mcg dose of deslorelin in SAIB at 96 hours post-weaning and were bred with a single insemination 28+/−2 hours later with no regard to estrus detection. The sows were examined for pregnancy by ultrasound at 21 days and slaughtered around 28 days post breeding. The entire reproductive tract was removed and corpora lutea and embryos were counted.

[4] = system: postpartum sows; assay: Litter size after deslorelin treatment in postpartum sows at three farm sites (Example 4); settings: Tables 3 to 5, regardless of estrus detection
From the text: Postpartum sows were randomly distributed into three different groups comprised of Controls, Treatment 1, and Treatment 2, with the exception of Site 3, which was divided into two groups, Control and Treatment 2. Control sows were detected for estrus following weaning, and bred following the normal standard operating procedures for the farms on which they resided. Treatment 1 sows were detected for estrus following weaning, and received a 50 mcg dose of deslorelin in the morning when standing and were bred by AI 4 hours later and again at 24+/−2 hours later. Treatment 2 sows received a 50 mcg dose of deslorelin in SAIB at 96 or 120 hours post-weaning and were bred with a single insemination 28+/−2 hours later with no regard to estrus detection.

[5] = system: postpartum sows; assay: Pregnancy rate after deslorelin treatment in sows, summary of Tables 2 to 5; settings: Table 6
Protocol: as §1, with “counted. Postpartum sows were randomly distributed into three different groups comprised of Controls, Treatment 1, and Treatment 2, with the exception of Site 3, which was divided into two groups, Control and Treatment 2. Control sows were detected for estrus following weaning, and bred following the normal standard operating procedures for the farms on which they resided. Treatment 1 sows were detected for estrus following weaning, and received a 50 mcg dose of deslorelin in the morning when standing and were bred by AI 4 hours later and again at 24+/−2 hours later. Treatment 2 sows received a 50 mcg dose of deslorelin in SAIB at 96 or 120 hours post-weaning and were bred with a single insemination 28+/−2 hours later with no regard to estrus detection. […]” for “counted.”

[6] = 50 μg deslorelin acetate intravulvar at first estrus detection, AI, AI again if in estrus next day

CCNC(=O)[C@@H]1CCCN1C(=O)[C@H](CCCN=C(N)N)NC(=O)[C@H](CC(C)C)NC(=O)[C@@H](Cc1c[nH]c2ccccc12)NC(=O)[C@H](Cc1ccc(O)cc1)NC(=O)[C@H](CO)NC(=O)[C@H](Cc1c[nH]c2ccccc12)NC(=O)[C@H](Cc1cnc[nH]1)NC(=O)[C@@H]1CCC(=O)N1 [Deslorelin, deslorelin]
Time of LH return to base level [1]: ≤ 18 h
LH peak relative to normal value ([1]; normal value from Hansel et al. 1973): about twice normal value
Length of Estrus [2, 6]: 40.81 h
Pregnancy Rate [2, 6]: 91%
Pregnancy rates, Control versus Treated ([2]; 50 μg intravulvar at first estrus detection): no significant difference
Pregnancy Rate ([3]; 50 mcg in SAIB 96 hours post-weaning, single insemination 28+/-2 hours later, no estrus detection): 71%
Sows Pregnant ([3]; 50 mcg in SAIB 96 hours post-weaning, single insemination 28+/-2 hours later, 84 sows in group, ultrasound at 21 days): 60
Embryo Survival ([3]; 50 mcg in SAIB 96 hours post-weaning, slaughter around 28 days post breeding): 64%
Pregnancy rates ([3]; single timed injection post-weaning, single timed insemination, no estrus detection): normal pregnancy rates were attained
Litter sizes [4]: normal litter sizes
Pregnancy rates [5]: normal pregnancy rates were obtained
